Experimental data: ChEMBL document CHEMBL4806963, “Antagonistic peptides for frizzled-1 and frizzled-2” (2013)
Active and inactive are the calls of the source. The calls are words filed in the database; no cut-off is given here. Where a SMILES comes first, the peptide text is derived from it.

Legend:
[1] = biological target: Frizzled-1 (Homo sapiens) (UniProt Q9UP38); assay: Antagonist activity at frizzled-1 (unknown origin) expressed in rat C-FIT cells assessed as inhibition of Wnt3a-stimulated blockade of migration at 10 nM incubated for 48 hrs and measured for 24 hrs following the scratch by scratch wound healing assay; format: functional, cell-based; details: filed as antagonist, time 72.0 hrs
[2] = biological target: Frizzled-1 (Homo sapiens) (UniProt Q9UP38); assay: Antagonist activity at frizzled-1 (unknown origin) expressed in rat C-FIT cells assessed as inhibition of Wnt5a-stimulated cell differentiation changes by measuring alpha-smooth muscle actin gene expression at 10 nM by quantitative RT-PCR analysis; format: functional, cell-based; details: filed as antagonist
[3] = biological target: Frizzled-2 (Homo sapiens) (UniProt Q14332); assay: Antagonist activity at frizzled-2 (unknown origin) expressed in rat C-FIT cells assessed as inhibition of Wnt5a-stimulated cell differentiation changes by measuring alpha-smooth muscle actin gene expression at 10 nM by quantitative RT-PCR analysis; format: functional, cell-based; details: filed as antagonist
[4] = biological target: Frizzled-2 (Rattus norvegicus) (UniProt Q08464); assay: Agonist activity at rat frizzled-2 expressed in African green monkey COS7 cells by luciferase reporter gene assay; format: cell-based
[5] = biological target: T1, Frizzled-4 (Homo sapiens) (UniProt Q9ULV1); assay: Antagonist activity at Wnt3a-stimulaed human frizzled-4 expressed in human HEK293superTOP flash cells at 10 nM incubated for 24 hrs by luciferase reporter gene assay; format: functional, cell-based; details: HEK293
T1 sequence (whole entry): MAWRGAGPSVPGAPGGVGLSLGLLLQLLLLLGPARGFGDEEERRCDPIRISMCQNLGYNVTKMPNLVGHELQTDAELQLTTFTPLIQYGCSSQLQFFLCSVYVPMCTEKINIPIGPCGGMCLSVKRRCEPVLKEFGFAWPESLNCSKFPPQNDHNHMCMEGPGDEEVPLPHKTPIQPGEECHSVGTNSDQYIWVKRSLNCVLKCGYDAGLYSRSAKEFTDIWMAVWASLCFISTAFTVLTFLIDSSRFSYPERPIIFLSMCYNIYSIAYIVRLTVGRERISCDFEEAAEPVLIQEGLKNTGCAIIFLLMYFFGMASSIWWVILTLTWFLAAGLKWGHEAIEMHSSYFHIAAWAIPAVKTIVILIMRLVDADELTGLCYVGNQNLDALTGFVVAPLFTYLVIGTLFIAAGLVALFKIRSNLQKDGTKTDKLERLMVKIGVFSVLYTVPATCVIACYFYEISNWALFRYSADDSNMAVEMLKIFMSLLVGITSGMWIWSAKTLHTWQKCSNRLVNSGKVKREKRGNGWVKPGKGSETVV

[6] = biological target: Frizzled-5 (Homo sapiens) (UniProt Q13467); assay: Antagonist activity at Wnt3a-stimulaed human frizzled-5 expressed in human HEK293superTOP flash cells at 10 nM incubated for 24 hrs by luciferase reporter gene assay; format: functional, cell-based; details: HEK293
[7] = biological target: Frizzled-2 (Mus musculus) (UniProt Q9JIP6); assay: Antagonist activity at Wnt3a-stimulaed mouse frizzled-2 expressed in human HEK293superTOP flash cells incubated for 24 hrs by luciferase reporter gene assay; format: cell-based; details: HEK293, filed as antagonist
[8] = biological target: Frizzled-2 (Homo sapiens) (UniProt Q14332); assay: Antagonist activity at Wnt3a-stimulaed frizzled-2 (unknown origin) expressed in human HEK293superTOP flash cells at 1 nM incubated for 24 hrs by luciferase reporter gene assay (reference value: 0%); format: functional, cell-based; details: HEK293, filed as antagonist
Mus musculus [9] = assay: Cardioprotective activity against myocardial infarction Swiss mouse model assessed as ventricular dilation at 6 ug/kg/day, sc via osmotic pumps for 5 weeks by macroscopic analysis; format: functional, organism-based; details: dose 6.0 µg/kg/day
Mus musculus [10] = assay: Cardioprotective activity against myocardial infarction Swiss mouse model assessed as increase in amount of blood vessels in heart at 6 ug/kg/day, sc via osmotic pumps for 5 weeks by immunohistochemical staining analysis; format: functional, organism-based; details: dose 6.0 µg/kg/day
Mus musculus [11] = assay: Cardioprotective activity against myocardial infarction Swiss mouse model assessed as reduction in collagen level in infarct area at 6 ug/kg/day, sc via osmotic pumps for 5 weeks by immunohistochemical staining analysis; format: functional, organism-based; details: dose 6.0 µg/kg/day

Frizzled-1 (Homo sapiens), sequence (Q9UP38 70-647 limits assumed): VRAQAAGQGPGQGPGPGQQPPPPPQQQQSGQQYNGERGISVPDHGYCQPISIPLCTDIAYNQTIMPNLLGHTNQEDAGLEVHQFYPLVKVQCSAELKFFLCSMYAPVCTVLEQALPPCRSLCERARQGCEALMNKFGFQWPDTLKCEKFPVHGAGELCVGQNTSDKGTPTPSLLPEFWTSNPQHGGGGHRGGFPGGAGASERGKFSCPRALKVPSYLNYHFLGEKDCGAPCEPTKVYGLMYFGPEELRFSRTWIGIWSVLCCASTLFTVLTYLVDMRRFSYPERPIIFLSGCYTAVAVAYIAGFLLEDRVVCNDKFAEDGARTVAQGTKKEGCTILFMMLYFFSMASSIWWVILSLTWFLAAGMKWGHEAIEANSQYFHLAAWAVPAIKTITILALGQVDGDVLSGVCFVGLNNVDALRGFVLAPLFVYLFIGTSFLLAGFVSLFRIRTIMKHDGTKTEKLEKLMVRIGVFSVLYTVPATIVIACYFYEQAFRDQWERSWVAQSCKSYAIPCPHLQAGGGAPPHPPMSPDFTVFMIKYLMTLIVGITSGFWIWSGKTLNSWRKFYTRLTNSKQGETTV
Frizzled-2 (Homo sapiens), sequence (Q14332 24-565 limits assumed): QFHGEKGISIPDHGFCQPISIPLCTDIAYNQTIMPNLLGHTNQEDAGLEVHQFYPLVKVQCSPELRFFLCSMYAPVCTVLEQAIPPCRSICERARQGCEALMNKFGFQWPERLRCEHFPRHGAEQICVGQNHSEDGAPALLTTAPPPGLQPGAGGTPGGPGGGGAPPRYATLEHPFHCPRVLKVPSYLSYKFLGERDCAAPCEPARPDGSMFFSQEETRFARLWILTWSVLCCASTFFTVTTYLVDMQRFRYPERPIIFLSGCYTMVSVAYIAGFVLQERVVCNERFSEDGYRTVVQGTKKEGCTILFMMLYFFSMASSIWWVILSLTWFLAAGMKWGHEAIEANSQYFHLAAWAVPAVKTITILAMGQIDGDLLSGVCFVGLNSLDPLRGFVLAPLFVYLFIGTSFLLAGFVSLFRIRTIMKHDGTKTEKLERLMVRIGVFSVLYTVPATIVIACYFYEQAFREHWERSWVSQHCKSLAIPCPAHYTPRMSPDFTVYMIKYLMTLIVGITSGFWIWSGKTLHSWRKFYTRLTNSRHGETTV
Frizzled-2 (Rattus norvegicus), sequence (Q08464 29-570 limits assumed): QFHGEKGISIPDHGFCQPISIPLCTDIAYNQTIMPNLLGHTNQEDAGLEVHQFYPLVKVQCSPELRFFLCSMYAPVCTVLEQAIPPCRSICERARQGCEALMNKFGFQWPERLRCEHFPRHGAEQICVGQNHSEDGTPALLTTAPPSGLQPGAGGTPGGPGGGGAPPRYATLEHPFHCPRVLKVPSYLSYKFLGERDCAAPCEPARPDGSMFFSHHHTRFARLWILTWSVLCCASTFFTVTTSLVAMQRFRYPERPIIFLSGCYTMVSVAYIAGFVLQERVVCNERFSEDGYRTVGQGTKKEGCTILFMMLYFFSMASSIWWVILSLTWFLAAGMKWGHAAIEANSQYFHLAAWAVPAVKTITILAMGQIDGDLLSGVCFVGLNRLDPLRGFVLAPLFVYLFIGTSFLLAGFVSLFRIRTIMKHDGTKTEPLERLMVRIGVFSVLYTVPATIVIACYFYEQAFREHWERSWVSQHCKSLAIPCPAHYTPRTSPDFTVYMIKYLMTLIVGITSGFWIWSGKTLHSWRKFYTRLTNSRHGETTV
Frizzled-5 (Homo sapiens), sequence (Q13467 whole entry): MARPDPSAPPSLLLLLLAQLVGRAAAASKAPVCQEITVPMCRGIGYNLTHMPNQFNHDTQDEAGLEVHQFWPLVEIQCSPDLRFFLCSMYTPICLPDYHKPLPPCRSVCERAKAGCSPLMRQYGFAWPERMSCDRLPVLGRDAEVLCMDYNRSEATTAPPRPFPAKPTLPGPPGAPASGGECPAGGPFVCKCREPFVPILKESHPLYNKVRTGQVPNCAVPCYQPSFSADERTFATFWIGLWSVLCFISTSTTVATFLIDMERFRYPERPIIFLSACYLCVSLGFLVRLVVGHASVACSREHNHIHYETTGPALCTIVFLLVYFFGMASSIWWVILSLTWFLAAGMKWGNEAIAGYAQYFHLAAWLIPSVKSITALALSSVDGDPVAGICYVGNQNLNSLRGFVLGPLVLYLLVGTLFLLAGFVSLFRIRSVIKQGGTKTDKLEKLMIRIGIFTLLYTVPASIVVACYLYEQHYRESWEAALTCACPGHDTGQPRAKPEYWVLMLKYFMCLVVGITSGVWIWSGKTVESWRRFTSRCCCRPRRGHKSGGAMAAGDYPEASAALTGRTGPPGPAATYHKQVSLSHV
Frizzled-2 (Mus musculus), sequence (Q9JIP6 whole entry, looked up): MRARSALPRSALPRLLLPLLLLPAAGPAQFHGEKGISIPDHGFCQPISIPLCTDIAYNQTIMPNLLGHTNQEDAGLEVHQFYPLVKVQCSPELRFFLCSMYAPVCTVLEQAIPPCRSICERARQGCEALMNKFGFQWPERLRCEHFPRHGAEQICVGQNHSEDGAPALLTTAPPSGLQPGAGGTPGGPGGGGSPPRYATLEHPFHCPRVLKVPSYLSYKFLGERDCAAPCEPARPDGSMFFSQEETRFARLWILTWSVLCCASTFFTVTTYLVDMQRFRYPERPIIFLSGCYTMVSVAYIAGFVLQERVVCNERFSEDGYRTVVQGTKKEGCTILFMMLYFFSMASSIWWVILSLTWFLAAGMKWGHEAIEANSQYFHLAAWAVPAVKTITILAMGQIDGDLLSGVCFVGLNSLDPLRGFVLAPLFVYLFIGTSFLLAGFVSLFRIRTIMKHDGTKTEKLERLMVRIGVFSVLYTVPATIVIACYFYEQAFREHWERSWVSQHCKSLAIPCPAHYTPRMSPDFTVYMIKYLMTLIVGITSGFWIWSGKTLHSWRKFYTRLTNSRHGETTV

Compound: CSCC[C@H](NC(=O)CNC(=O)[C@H](CCC(=O)O)NC(=O)[C@H](CO)NC(=O)[C@@H](NC(=O)[C@H](CCCCN)NC(=O)[C@H](CC(N)=O)NC(=O)[C@H](CS)NC(C)=O)[C@@H](C)O)C(=O)N[C@@H](CC(=O)O)C(=O)NCC(=O)N[C@@H](CS)C(=O)N[C@@H](CCC(=O)O)C(=O)N[C@@H](CC(C)C)C(N)=O (Ac-CNKTSEGMDGCEL-NH2)
- inhibition [1]: 100%
- inhibition [2]: 100%
- inhibition [3]: 100%
- Activity [4]: inactive
- inhibition [5]: inactive
- inhibition [6]: inactive
- inhibition [7]: Active
- inhibition [8]: 61.2%
- Activity (Mus musculus [9]): Active
- Activity (Mus musculus [10]): Active
- Activity (Mus musculus [11]): Active
